“And” between values parts separate entries of the source, which are not always exact repeats. Equal entries are not always repeated.
Details: for mass density: Buoyancy - hydrostatic balance with magnetic suspension - two sinkers; for vapor or sublimation pressure: Closed cell (Static) method; for speed of sound: Spherical resonator

O=C(C(F)(F)C(F)(F)F)C(F)(C(F)(F)F)C(F)(F)F [dodecafluoro-2-methylpentan-3-one]
Details	mass density [kg/m3]	speed of sound [m/s]
400.01 K, 16056 kPa, Liquid	1413.68	–
400.01 K, 24343 kPa, Liquid	1465.04	–
400.05 K, 54.88 kPa, Gas	–	102.64
400.05 K, 54.92 kPa, Gas	–	102.64
400.05 K, 154.66 kPa, Gas	–	99.83
400.05 K, 252.99 kPa, Gas	–	96.94
400.05 K, 354.19 kPa, Gas	–	93.75
400.05 K, 451.42 kPa, Gas	–	90.4
400.05 K, 554.73 kPa, Gas	–	86.45
400.05 K, 667.8 kPa, Gas	–	81.52
402 K, 14323 kPa, Liquid	1395.32	–
410.01 K, 16854 kPa, Liquid	1394.24	–
420 K, 19987 kPa, Liquid	1392.85	–
420.02 K, 6075.7 kPa, Liquid	1241.69	–
425.04 K, 60.31 kPa, Gas	–	105.94
425.04 K, 144.61 kPa, Gas	–	104
425.04 K, 258 kPa, Gas	–	101.36
425.04 K, 399.11 kPa, Gas	–	97.86
425.04 K, 546.05 kPa, Gas	–	93.91
425.04 K, 696.35 kPa, Gas	–	89.45
425.04 K, 845.73 kPa, Gas	–	84.47
425.04 K, 951.86 kPa, Gas	–	80.49
425.04 K, 1061.7 kPa, Gas	–	75.84
429.99 K, 8117.7 kPa, Liquid	1240.57	–
430.02 K, 23113 kPa, Liquid	1391.48	–
440 K, 10172 kPa, Liquid	1239.42	–
440.01 K, 26214 kPa, Liquid	1390.14	–
449.97 K, 1492 kPa, Gas	–	74.05
449.98 K, 99.8 kPa, Gas	–	108.43
449.98 K, 296.98 kPa, Gas	–	104.72
449.98 K, 499.37 kPa, Gas	–	100.64
449.98 K, 701.04 kPa, Gas	–	96.26
449.98 K, 901.63 kPa, Gas	–	91.5
449.98 K, 1104.8 kPa, Gas	–	86.19
449.98 K, 1292.1 kPa, Gas	–	80.71
449.98 K, 1680.8 kPa, Gas	–	66.68
450 K, 12226 kPa, Gas	1238.27	–
450.01 K, 394.1 kPa, Gas	35.895	–
450.01 K, 913.4 kPa, Gas	93.929	–
450.01 K, 1478.4 kPa, Gas	185.135	–
450.01 K, 2042.6 kPa, Gas	417.845	–
450.01 K, 2500.6 kPa, Gas	856.702	–
450.01 K, 2998.2 kPa, Gas	943.857	–
450.01 K, 3997.1 kPa, Gas	1026.46	–
450.01 K, 4993.9 kPa, Gas	1075.63	–
450.01 K, 5983.6 kPa, Gas	1111.42	–
450.01 K, 8215.2 kPa, Gas	1169.39	–
450.01 K, 12010 kPa, Gas	1235.17	–
450.01 K, 15954 kPa, Gas	1283.62	–
450.01 K, 19948 kPa, Gas	1321.88	–
450.01 K, 29286 kPa, Gas	1388.75	–
460 K, 14282 kPa, Gas	1237.17	–
469.99 K, 2186.2 kPa, Gas	306.462	–
469.99 K, 2797.9 kPa, Gas	560.84	–
469.99 K, 3424.1 kPa, Gas	779.472	–
469.99 K, 6087.4 kPa, Gas	1018.11	–
470 K, 680 kPa, Gas	61.543	–
470 K, 1356.4 kPa, Gas	142.264	–
470 K, 4374.3 kPa, Gas	910.538	–
470 K, 7969.1 kPa, Gas	1085.6	–
470 K, 9768.9 kPa, Gas	1131.11	–
470 K, 11977 kPa, Gas	1173.86	–
470 K, 14031 kPa, Gas	1205.91	–
470 K, 16332 kPa, Gas	1236.02	–
475.01 K, 147.79 kPa, Gas	–	110.98
475.01 K, 349.5 kPa, Gas	–	107.83
475.01 K, 501.76 kPa, Gas	–	105.38
475.01 K, 501.77 kPa, Gas	–	105.38
475.01 K, 501.78 kPa, Gas	–	105.38
475.01 K, 501.8 kPa, Gas	–	105.38
475.01 K, 697.46 kPa, Gas	–	102.08
475.01 K, 898.52 kPa, Gas	–	98.51
475.01 K, 1150.9 kPa, Gas	–	93.77
475.01 K, 1296.2 kPa, Gas	–	90.92
475.01 K, 1496.6 kPa, Gas	–	86.78
475.01 K, 1685 kPa, Gas	–	82.69
500.01 K, 103.24 kPa, Gas	–	114.77
500.01 K, 301.45 kPa, Gas	–	112.25
500.01 K, 502.44 kPa, Gas	–	109.63
500.01 K, 502.55 kPa, Gas	–	109.63
500.01 K, 502.62 kPa, Gas	–	109.63
500.01 K, 502.7 kPa, Gas	–	109.63
500.01 K, 502.81 kPa, Gas	–	109.64
500.01 K, 503 kPa, Gas	–	109.64
500.01 K, 703.51 kPa, Gas	–	106.95
500.01 K, 893.84 kPa, Gas	–	104.33
500.01 K, 1100.4 kPa, Gas	–	101.42
500.01 K, 1100.8 kPa, Gas	–	101.42
500.01 K, 1308.1 kPa, Gas	–	98.44
500.01 K, 1503.6 kPa, Gas	–	95.59
500.01 K, 1746.5 kPa, Gas	–	92
500.02 K, 1746.7 kPa, Gas	–	92
500.02 K, 1746.9 kPa, Gas	–	91.99

Liquid
Details	vapor or sublimation pressure
400.01 K	826 kPa
410.02 K	1016 kPa
410.03 K	1014.3 kPa
420.02 K	1238.2 kPa and 1238.3 kPa
